For one data set, the target named is HsGSK3β (Homo sapiens, UniProt P49841). The experiment in a line: ADP-Glo kinase assay. The format is biochemical, Homo sapiens (Hs). To be noted: mean n = 2, % of maximum activity of DMSO control, read-out: % Residual activity at 1 μM GSK3β. On the procedure: (§1) Kinase activities were determined using the ADP-Glo methodology (ADP-Glo Kinase Assay; Promega) according to the assay described by Nguyen et al.[32] except for MmCLK1. The later was assayed in the following buffer: 10 mM MgCl2, 1 mM EGTA, 1 mM DTT, 25 mM Tris-HCl pH 7.5, 50 µg/ml heparin, 0.15 mg/ml BSA, with 0.027 µg/µl of the following peptide: GRSRSRSRSRSR as substrate.
HsGSK3β, sequence (P49841 whole entry): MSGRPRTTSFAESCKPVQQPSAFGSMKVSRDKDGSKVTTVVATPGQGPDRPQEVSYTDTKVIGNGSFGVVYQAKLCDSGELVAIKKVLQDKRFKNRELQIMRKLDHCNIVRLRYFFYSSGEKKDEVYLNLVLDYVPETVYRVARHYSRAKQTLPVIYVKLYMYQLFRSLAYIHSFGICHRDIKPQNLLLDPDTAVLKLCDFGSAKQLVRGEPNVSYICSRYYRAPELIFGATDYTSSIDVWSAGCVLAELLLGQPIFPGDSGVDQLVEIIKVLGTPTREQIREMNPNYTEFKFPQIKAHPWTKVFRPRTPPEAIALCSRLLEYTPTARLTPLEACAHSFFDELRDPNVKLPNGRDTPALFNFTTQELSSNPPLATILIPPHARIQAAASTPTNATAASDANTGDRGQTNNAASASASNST
Background: In ADP-Glo the light output rises with the ADP produced.

The target in a further data set is HsCdk5/p25 (Homo sapiens, UniProt Q00535). The experiment in a line: ADP-Glo kinase assay. The conditions noted are these: mean n = 2, % of maximum activity of DMSO control, read-out: % Residual activity at 1 μM CDK5. It is filed as biochemical, Homo sapiens (Hs). The method, then: as §1
HsCdk5/p25, sequence (Q00535 whole entry): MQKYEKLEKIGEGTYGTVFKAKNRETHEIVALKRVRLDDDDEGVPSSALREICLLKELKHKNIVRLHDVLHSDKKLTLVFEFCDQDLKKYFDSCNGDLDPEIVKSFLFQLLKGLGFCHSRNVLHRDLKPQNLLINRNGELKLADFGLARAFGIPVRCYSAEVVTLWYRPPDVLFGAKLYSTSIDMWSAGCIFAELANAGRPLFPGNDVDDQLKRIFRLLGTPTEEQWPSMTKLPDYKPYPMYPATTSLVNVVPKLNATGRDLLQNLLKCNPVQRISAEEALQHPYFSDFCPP
HsCdk5/p25, sequence (Q15078 99-307 partner limits assumed): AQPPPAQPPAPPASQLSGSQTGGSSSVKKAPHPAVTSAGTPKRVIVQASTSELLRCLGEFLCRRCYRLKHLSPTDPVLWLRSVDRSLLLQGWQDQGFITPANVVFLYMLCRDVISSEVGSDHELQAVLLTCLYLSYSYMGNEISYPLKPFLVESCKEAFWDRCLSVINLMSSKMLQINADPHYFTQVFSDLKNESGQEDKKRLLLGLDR
The target of a further data set is HsCdk2/Cyc A (Homo sapiens, UniProt P24941). The experiment in a line: ADP-Glo kinase assay. The format is biochemical, Homo sapiens (Hs). The conditions noted are these: mean n = 2, % of maximum activity of DMSO control, read-out: % Residual activity at 1 μM CDK2. The method, then:
as §1

The target of the next data set is HsPIM1 (Homo sapiens, UniProt P11309). The experiment in a line: ADP-Glo kinase assay. To be noted: mean n = 2, % of maximum activity of DMSO control, read-out: % Residual activity at 1 μM PIM1. The format is biochemical, Homo sapiens (Hs). The method, then: as §1
HsPIM1, sequence (P11309 whole entry): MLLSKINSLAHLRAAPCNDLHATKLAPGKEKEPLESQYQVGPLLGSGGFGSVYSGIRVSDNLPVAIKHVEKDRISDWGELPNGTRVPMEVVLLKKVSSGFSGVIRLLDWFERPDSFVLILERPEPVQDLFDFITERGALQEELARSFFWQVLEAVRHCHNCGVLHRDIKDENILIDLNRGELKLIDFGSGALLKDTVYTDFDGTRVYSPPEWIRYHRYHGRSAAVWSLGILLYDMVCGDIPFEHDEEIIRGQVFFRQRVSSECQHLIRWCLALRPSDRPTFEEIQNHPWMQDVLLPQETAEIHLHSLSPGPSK
Another data set has as its target T1, HsHaspin (Homo sapiens, UniProt Q8TF76).
T1 sequence (Q8TF76 1-798): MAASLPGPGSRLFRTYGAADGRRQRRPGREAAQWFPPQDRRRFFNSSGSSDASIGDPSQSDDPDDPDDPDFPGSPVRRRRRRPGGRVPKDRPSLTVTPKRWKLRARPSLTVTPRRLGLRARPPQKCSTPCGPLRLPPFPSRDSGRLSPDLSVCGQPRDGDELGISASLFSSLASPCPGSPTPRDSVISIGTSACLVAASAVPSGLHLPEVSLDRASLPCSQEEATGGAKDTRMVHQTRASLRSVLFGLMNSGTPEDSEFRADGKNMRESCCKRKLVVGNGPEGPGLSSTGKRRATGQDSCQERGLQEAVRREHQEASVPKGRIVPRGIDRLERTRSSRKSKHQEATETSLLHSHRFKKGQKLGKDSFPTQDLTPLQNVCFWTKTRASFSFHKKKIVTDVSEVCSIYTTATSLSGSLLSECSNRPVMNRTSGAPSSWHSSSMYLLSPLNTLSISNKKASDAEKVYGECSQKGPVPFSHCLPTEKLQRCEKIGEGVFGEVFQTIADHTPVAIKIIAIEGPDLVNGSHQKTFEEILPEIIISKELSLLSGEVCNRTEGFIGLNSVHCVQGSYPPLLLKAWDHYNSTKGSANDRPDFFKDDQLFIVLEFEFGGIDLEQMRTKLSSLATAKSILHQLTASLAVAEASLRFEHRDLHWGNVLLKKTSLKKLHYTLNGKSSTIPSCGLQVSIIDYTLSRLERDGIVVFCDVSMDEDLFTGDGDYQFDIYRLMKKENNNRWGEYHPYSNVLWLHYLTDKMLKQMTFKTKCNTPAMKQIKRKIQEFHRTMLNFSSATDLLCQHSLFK
As to the kind of experiment: ADP-Glo kinase assay. The format is biochemical, Homo sapiens (Hs). The conditions noted are these: for remaining activity at 1 µM: mean n = 2, % of maximum activity of DMSO control, read-out: % Residual activity at 1 μM Haspin; for IC50: dose-response curve, each point in duplicate, read-out: Kinase inhibition (IC50) Haspin. The method, then:
as §1

For a further data set, the target named is HsCdk9/Cyc E (Homo sapiens, UniProt P50750). The experiment in a line: ADP-Glo kinase assay. The format is biochemical, Homo sapiens (Hs). The conditions noted are these: mean n = 2, % of maximum activity of DMSO control, read-out: % Residual activity at 1 μM CDK9. On the procedure:
as §1

For a further data set, the target named is RnDYRK1A (Rattus norvegicus, UniProt Q63470). As to the kind of experiment: ADP-Glo kinase assay. It is filed as biochemical, Rattus norvegicus (Rn). The conditions noted are these: for remaining activity: mean n = 2, % of maximum activity of DMSO control, read-out: % Residual activity at 1 μM DYRK1A; for Selectivity index DYRK/Haspin: IC50 DYRK1A/IC50 Haspin; for IC50: dose-response curve, each point in duplicate, read-out: Kinase inhibition (IC50) DYRK1A. The method, then:
as §1

The target of a further data set is MmCLK1 (Mus musculus, UniProt P22518). As to the kind of experiment: ADP-Glo kinase assay. The format is biochemical, Mus musculus (Mm). The conditions noted are these: for remaining activity at 1 µM: mean n = 2, % of maximum activity of DMSO control, read-out: % Residual activity at 1 μM CLK1; for Selectivity index CLK1/Haspin: IC50 CLK1/IC50 Haspin; for IC50: dose-response curve, each point in duplicate, read-out: Kinase inhibition (IC50) CLK1. The method, then: as §1
MmCLK1, sequence (P22518 whole entry): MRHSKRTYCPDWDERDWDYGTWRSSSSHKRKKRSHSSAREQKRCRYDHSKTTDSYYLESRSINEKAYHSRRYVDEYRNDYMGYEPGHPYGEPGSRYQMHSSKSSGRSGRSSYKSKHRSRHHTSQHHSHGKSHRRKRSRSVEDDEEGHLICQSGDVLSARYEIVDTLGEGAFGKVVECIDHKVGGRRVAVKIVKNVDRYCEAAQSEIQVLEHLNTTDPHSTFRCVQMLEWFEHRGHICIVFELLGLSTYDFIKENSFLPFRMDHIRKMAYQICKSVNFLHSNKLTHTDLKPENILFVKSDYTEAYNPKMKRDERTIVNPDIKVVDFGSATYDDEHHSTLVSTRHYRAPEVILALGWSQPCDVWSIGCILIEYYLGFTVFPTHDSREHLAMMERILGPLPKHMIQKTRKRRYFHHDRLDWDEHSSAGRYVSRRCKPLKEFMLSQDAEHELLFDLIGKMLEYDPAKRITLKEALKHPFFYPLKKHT

HsCdk9/Cyc E, sequence (P50750 whole entry): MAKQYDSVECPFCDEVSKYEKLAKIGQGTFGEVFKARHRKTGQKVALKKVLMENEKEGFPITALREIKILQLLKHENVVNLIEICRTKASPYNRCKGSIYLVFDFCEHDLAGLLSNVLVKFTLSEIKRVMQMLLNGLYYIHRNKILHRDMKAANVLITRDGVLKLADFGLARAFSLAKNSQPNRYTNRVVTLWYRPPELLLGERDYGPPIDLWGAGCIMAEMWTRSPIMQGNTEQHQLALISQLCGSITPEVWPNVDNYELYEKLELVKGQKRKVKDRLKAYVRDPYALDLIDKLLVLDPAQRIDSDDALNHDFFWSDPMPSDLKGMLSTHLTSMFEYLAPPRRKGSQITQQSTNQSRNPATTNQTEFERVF
HsCdk9/Cyc E, sequence (O60563 whole entry partner): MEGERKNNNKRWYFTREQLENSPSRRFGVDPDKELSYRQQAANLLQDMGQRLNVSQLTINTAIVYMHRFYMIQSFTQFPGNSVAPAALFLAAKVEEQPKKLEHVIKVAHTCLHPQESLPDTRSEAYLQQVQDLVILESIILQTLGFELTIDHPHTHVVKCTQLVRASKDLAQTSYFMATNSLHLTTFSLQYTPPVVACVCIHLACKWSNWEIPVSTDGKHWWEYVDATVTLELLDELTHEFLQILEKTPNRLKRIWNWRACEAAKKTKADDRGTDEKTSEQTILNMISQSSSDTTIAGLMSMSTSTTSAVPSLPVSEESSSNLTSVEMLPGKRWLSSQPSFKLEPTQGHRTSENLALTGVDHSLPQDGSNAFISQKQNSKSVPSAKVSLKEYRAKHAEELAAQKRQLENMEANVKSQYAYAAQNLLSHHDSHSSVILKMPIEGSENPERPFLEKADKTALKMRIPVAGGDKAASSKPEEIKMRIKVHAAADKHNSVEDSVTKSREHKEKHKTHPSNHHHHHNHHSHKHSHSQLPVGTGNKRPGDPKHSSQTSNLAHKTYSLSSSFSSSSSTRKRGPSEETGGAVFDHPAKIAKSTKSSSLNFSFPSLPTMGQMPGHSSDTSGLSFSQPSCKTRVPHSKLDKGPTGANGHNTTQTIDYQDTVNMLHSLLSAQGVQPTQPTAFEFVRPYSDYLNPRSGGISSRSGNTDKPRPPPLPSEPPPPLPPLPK

In the case of `O=c1[nH]c2ccccc2c2c1[nH]c1ccccc12` [Compound 45, 5,7-Dihydro-6H-indolo[2,3-c]quinolin-6-one], the remaining activity at 1 µM on HsGSK3β stood at 100%; on HsCdk5/p25, 100%; at HsCdk2/Cyc A it was 100%; on HsPIM1, 86%; at HsHaspin, 44%; at HsCdk9/Cyc E, 63%. The remaining activity at 1 µM at MmCLK1 worked out at 67%. Further, the remaining activity at RnDYRK1A was 61%.

Usually melting point stands for the temperature of the solid-liquid transition. As to `O=c1[nH]c2cc(O)ccc2c2c1[nH]c1ccccc12` [Compound 47, 3-Hydroxy-5,7-dihydro-6H-indolo[2,3-c]quinolin-6-one], the melting point was 238 to 240 °C (dec.). On HsGSK3β, the remaining activity at 1 µM is 47%. Also, at HsCdk5/p25, the remaining activity at 1 µM stood at 59%. Also, at HsCdk2/Cyc A, the remaining activity at 1 µM was found to be 61%. Besides, at HsPIM1, the remaining activity at 1 µM stood at 37%. For the same compound, the remaining activity at 1 µM on HsHaspin is 28%. Also, the remaining activity at 1 µM at HsCdk9/Cyc E was 20%. The remaining activity at RnDYRK1A came to 33%. Also, at MmCLK1, the remaining activity at 1 µM was found to be 22%.

As a reminder, the IC50 is the concentration that gives 50% inhibition. The compound `COc1ccc2[nH]c3c(=O)[nH]c4cc(OC)c(OC)cc4c3c2c1` [Compound 52, 2,3,10-Trimethoxy-5,7-dihydro-6H-indolo[2,3-c]quinolin-6-one] gave a melting point of 205 to 208 °C. Moreover, the remaining activity at 1 µM on HsGSK3β worked out at 22%. Further, at HsCdk5/p25, the remaining activity at 1 µM came out at 63%. Also, the remaining activity at 1 µM at HsCdk2/Cyc A worked out at 58%. In addition, the remaining activity at 1 µM on HsPIM1 is 29%. Further, at HsHaspin, the remaining activity at 1 µM is 2% and the IC50 is 16 nM. The remaining activity at 1 µM on HsCdk9/Cyc E was 37%. In addition, at RnDYRK1A, the “Selectivity index DYRK/Haspin” value came out at 15, the 50% inhibitory concentration (IC50) amounted to 242 nM and the remaining activity is 5%. For the same compound, on MmCLK1, the remaining activity at 1 µM amounted to 1%, the “Selectivity index CLK1/Haspin” value amounted to 5 and the IC50 turned out to be 78 nM.

In turn, `COc1ccc2[nH]c3c(=O)[nH]c4ccc(C(F)(F)F)cc4c3c2c1` [Compound 53, 10-Methoxy-2-(trifluoromethyl)-5,7-dihydro-6H-indolo[2,3-c]quinolin-6-one] came in with a melting point of 241 to 244 °C. Besides, the remaining activity at 1 µM on HsGSK3β is 63%. Also, the remaining activity at 1 µM on HsCdk5/p25 amounted to 56%. In addition, the remaining activity at 1 µM at HsCdk2/Cyc A is 76%. In addition, the remaining activity at 1 µM on HsPIM1 worked out at 31%. The remaining activity at 1 µM on HsHaspin was 33%. The remaining activity at 1 µM on HsCdk9/Cyc E was determined as 56%. Also, the remaining activity on RnDYRK1A worked out at 36%. Moreover, the remaining activity at 1 µM at MmCLK1 was found to be 11%.

The compound `COc1ccc2[nH]c3c(=O)[nH]c4ccc(NC(C)=O)cc4c3c2c1` [Compound 57, N-(10-Methoxy-6-oxo-6,7-dihydro-5H-indolo[2,3-c]quinolin-2-yl)acetamide] displayed a melting point of 242 to 245 °C. Further, the remaining activity at 1 µM on HsGSK3β amounted to 58%. Besides, the remaining activity at 1 µM on HsCdk5/p25 turned out to be 100%. Besides, at HsCdk2/Cyc A, the remaining activity at 1 µM amounted to 100%. In addition, at HsPIM1, the remaining activity at 1 µM came out at 37%. Further, on HsHaspin, the remaining activity at 1 µM amounted to 3% and the IC50 stood at 34 nM. Besides, on HsCdk9/Cyc E, the remaining activity at 1 µM is 72%. Moreover, on RnDYRK1A, the “Selectivity index DYRK/Haspin” value is listed as 8, the IC50 stood at 280 nM and the remaining activity amounted to 10%. Besides, at MmCLK1, the remaining activity at 1 µM stood at 2%, the “Selectivity index CLK1/Haspin” value is 8 and the half-inhibitory concentration (IC50) worked out at 259 nM.

On to `COc1ccc2c(c1)c1c3cc(C(F)(F)F)ccc3[nH]c(=O)c1n2C` [Compound 63, 10-Methoxy-7-methyl-2-(trifluoromethyl)-5,7-dihydro-6H-Indolo[2,3-c]quinolin-6-one], for which the remaining activity at 1 µM at HsGSK3β amounted to 44%; on HsCdk5/p25 it was 68%; at HsCdk2/Cyc A it was 67%; on HsPIM1 it was 42%; on HsHaspin it was 51%; on HsCdk9/Cyc E it was 45%. Also, the remaining activity at 1 µM on MmCLK1 turned out to be 19%. Further, the remaining activity on RnDYRK1A was determined as 29%.

The values above are taken from PMC9186362, “Design and biological evaluation of substituted 5,7-dihydro-6H-indolo[2,3-c]quinolin-6-one as novel selective Haspin inhibitors” (Journal of Enzyme Inhibition and Medicinal Chemistry, 2022).
